According to article PMC11303563 (Communications Medicine, 2024):
“And” between values parts separate entries of the source, which are not always exact repeats. Equal values may be shown once.

Assays:
[1] = tested on: high-fat diet (HFD)-induced obesity model mice; assay: Weight of epididymal adipose tissue (visceral fat) in HFD mice; format: in vivo, C57BL/6J mice; conditions: for Fig. 3b (weight of epididymal adipose tissue), group mean (Mean 2) / Epididymal adipose weight, individual mice (Fig. 3b) / weight of the epididymal adipose tissue vs vehicle: HFD mice; for Fig. 3b (weight of epididymal adipose tissue), group mean (Mean 2): n=10; for Fig. 3b (weight of epididymal adipose tissue), group mean (Mean 2) / Fig. 3b (weight of epididymal adipose tissue), Mean Diff. ND vs. treatment (Tukey) / Fig. 3b (weight of epididymal adipose tissue), Mean Diff. Vehicle vs. treatment (Tukey) / Epididymal adipose weight, individual mice (Fig. 3b): in mg (unit assumed); for Fig. 3b (weight of epididymal adipose tissue), Mean Diff. ND vs. treatment (Tukey): ND minus treated; for Fig. 3b (weight of epididymal adipose tissue), Mean Diff. Vehicle vs. treatment (Tukey): Vehicle minus treated; for weight of the epididymal adipose tissue vs vehicle: 3 weeks
Protocol: (§1) Epididymal adipose tissue was weighed.
(§2) Fig. 3 Effects of intraperitoneal injection of TH analogs on body weight and deposition of visceral fat. […] After three weeks of injection, body weight (a), and weight of the epididymal adipose tissue (b) were measured.

[2] = tested on: high-fat diet (HFD)-induced obesity model mice; assay: Body weight of high-fat diet-induced obesity model mice; format: in vivo, C57BL/6J mice; parameters: Body weight, Mean Diff. ND vs. treated: unit not given here; conditions: for Body weight, 95.00% CI of diff. ND vs. treated / Body weight, Mean Diff. ND vs. treated: ND group as comparator; for Body weight, 95.00% CI of diff. ND vs. treated / Body weight, Mean Diff. ND vs. treated / Body weight, 95.00% CI of diff. Vehicle vs. treated / Body weight, Mean Diff. Vehicle vs. treated: Tukey's multiple comparisons test; for Body weight, Mean Diff. Vehicle vs. treated / Body weight, group mean (Fig. 3a) / Body weight, individual mice (Fig. 3a): in g (unit assumed); for Body weight, group mean (Fig. 3a): n 10
Protocol: The injection was given 6 h after light on. Food consumption and body weights were measured weekly. Food and water were provided to the animals ad libitum. The animals were treated according to the guidelines of Nagoya University, and all experimental procedures were approved by the Animal Experiment Committee of Nagoya University (A210715-003).
as §1, §2

[3] = tested on: high-fat diet (HFD)-induced obesity model mice; assay: Serum lipid analysis (total cholesterol, triglycerides) in HFD mice; format: in vivo, C57BL/6J mice; parameters: Serum TC (Fig. 4a), individual mouse values / Serum TG (Fig. 4b), individual mouse values / Serum TC (Fig. 4a), Mean Diff. ND vs. treatment (Tukey) / Serum TC (Fig. 4a), Mean Diff. Vehicle vs. treatment (Tukey) / Serum TC (Fig. 4a), group mean (Mean 2) / Mean Diff., ND vs. treated (Fig. 4b) / Mean Diff., Vehicle vs. treated (Fig. 4b) / Mean (Fig. 4b): unit not given here; conditions: for Serum TC (Fig. 4a), group mean (Mean 2) / Mean (Fig. 4b): n=10; for Serum TC (Fig. 4a), Mean Diff. ND vs. treatment (Tukey): ND minus treated; for Serum TC (Fig. 4a), Mean Diff. Vehicle vs. treatment (Tukey): Vehicle minus treated; for Mean Diff., ND vs. treated (Fig. 4b) / Mean Diff., Vehicle vs. treated (Fig. 4b): Tukey's multiple comparisons test; for Mean (Fig. 4b): group mean
Protocol: Fig. 4 Effects of TH analogs on the accumulation of lipids in mice. […] After 3 weeks of injection, serum and liver tissues were collected, and the amount of serum cholesterol (a), serum triglycerides (b), liver cholesterol (c), liver triglycerides (d), and liver total lipids (e) were measured.

[4] = tested on: THR-regulated genes and lipid metabolism-related genes in the liver
[5] = In vitro blood-brain barrier permeability assay (BBB kit RBT-24H); format: in vitro ADME, rat; conditions: rat, 10 μM on luminal side, read-out: apparent permeability (Papp)
Protocol: Therefore, we tested BBB transparency in vitro using the BBB kit RBT-24H (PharmaCo-Cell)[35]. […] Blood-brain barrier permeability assay The blood-brain barrier (BBB) transparency of TH analogs was assessed in vitro using RBT-24H (PharmaCo-Cell)[5] according to the manufacturer 's protocol. […] After 30 min, the assay buffer in the wells mimicking the abluminal side was collected, and the concentration of the compounds was measured using liquid chromatography-mass spectrometry (LC-MS). […] These tips were preconditioned with 20 μL of acetonitrile and 20 μL of 0.1% TFA in purified water. 100 μL of the samples were loaded onto the preconditioned tips, washed with 200 μL of DW, and then eluted with 10 μL of acetonitrile. Triazine (1% vol/vol) was added to the eluent as an internal standard. […] 3 μm; Imtakt, Kyoto, Japan). All the experiments were performed using an Ultimate 3000 UHPLC system coupled with a Q Exactive Plus Orbitrap mass spectrometer (Thermo Fisher Scientific). […] Data were shown as mean ± standard deviation (n=3).

[6] = HFD mice, i.p. 1 µmol/kg day, 3 weeks
[7] = HFD mice, 1 μmol/kg day, RT-qPCR, reference gene Rps18
[8] = liver gene expression, 1µmol dose group vs. Vehicle

## O=C(O)Cc1cc(C(F)(F)F)c(Cc2ccc(O)c3ccccc23)c(C(F)(F)F)c1 [ZTA-261]
[1]; 0.1 µmol
  Fig. 3b (weight of epididymal adipose tissue), group mean (Mean 2): 2650
  Fig. 3b (weight of epididymal adipose tissue), Mean Diff. ND vs. treatment (Tukey): -1966
  Fig. 3b (weight of epididymal adipose tissue), Mean Diff. Vehicle vs. treatment (Tukey): 208.4
[1]; 1 µmol
  Fig. 3b (weight of epididymal adipose tissue), group mean (Mean 2): 1679
  Fig. 3b (weight of epididymal adipose tissue), Mean Diff. ND vs. treatment (Tukey): -996
  Fig. 3b (weight of epididymal adipose tissue), Mean Diff. Vehicle vs. treatment (Tukey): 1179
[1]; 0.1 µmol dose group
  Epididymal adipose weight, individual mice (Fig. 3b): 2776.2 and 2045.1 and 1929.4 and 2510.8 and 2876.4 and 3044.5 and 3312.5 and 2871.5 and 2180.4 and 2949.5
[1]; 1 µmol dose group
  Epididymal adipose weight, individual mice (Fig. 3b): 1625 and 1387 and 1309.2 and 1666.6 and 1860.1 and 1033.5 and 2042 and 1824.7 and 1973.2 and 2072
[1]; i.p. 0.1 µmol/kg day
  weight of the epididymal adipose tissue vs vehicle: did not show any obvious effect
[1]; i.p. 1 µmol/kg day
  weight of the epididymal adipose tissue vs vehicle: decreased significantly
[2]; 0.1 µmol dose group
  Body weight, 95.00% CI of diff. ND vs. treated: -17.31 to -8.599
  Body weight, Mean Diff. ND vs. treated: -12.95
  Body weight, 95.00% CI of diff. Vehicle vs. treated: -2.779 to 5.659
  Body weight, Mean Diff. Vehicle vs. treated: 1.44
[2]; 1 µmol dose group
  Body weight, 95.00% CI of diff. ND vs. treated: -11.31 to -2.596
  Body weight, Mean Diff. ND vs. treated: -6.951
  Body weight, 95.00% CI of diff. Vehicle vs. treated: 3.224 to 11.66
  Body weight, Mean Diff. Vehicle vs. treated: 7.443
[2]; HFD mice, 0.1 µmol dose group
  Body weight, group mean (Fig. 3a): 41.47
  Body weight, individual mice (Fig. 3a): 40.29 and 36.71 and 35.46 and 47.2 and 43.74 and 41.64 and 46.66 and 44.04 and 36.76 and 42.23
[2]; HFD mice, 1 µmol dose group
  Body weight, group mean (Fig. 3a): 35.47
  Body weight, individual mice (Fig. 3a): 32.91 and 31.68 and 37.61 and 39.1 and 35.68 and 36.65 and 37.77 and 35.13 and 35.26
[2]; HFD mice, i.p. 0.1 µmol/kg day, 3 weeks
  body weight vs vehicle (in words): did not significantly reduce body weight
[2]; [6]
  decrease of body weight compared to vehicle: ~ 20%
[3]; 0.1 µmol, HFD mice
  Serum TC (Fig. 4a), individual mouse values: 170.917 and 174.042 and 146.958 and 171.875 and 171.042 and 164.292 and 178.75 and 197.208 and 153.333 and 201.333
  Serum TG (Fig. 4b), individual mouse values: 76.25 and 92.083 and 101.25 and 78.417 and 57.583 and 89.25 and 104.25 and 84.25 and 81.75
  Serum TC (Fig. 4a), group mean (Mean 2): 173
  Mean (Fig. 4b): 84.35
[3]; 0.1 µmol
  Serum TC (Fig. 4a), Mean Diff. ND vs. treatment (Tukey): 6.447
  Serum TC (Fig. 4a), Mean Diff. Vehicle vs. treatment (Tukey): 77.09
[3]; 1 µmol, HFD mice
  Serum TC (Fig. 4a), individual mouse values: 100.083 and 106.125 and 141.958 and 148.125 and 147.292 and 139.708 and 132.5 and 117.5 and 94.583 and 113
  Serum TG (Fig. 4b), individual mouse values: 52.917 and 53.75 and 90.417 and 88.75 and 67.917 and 87.917 and 73.75 and 69.583 and 82.083 and 85.417
  Serum TC (Fig. 4a), group mean (Mean 2): 124.1
  Mean (Fig. 4b): 75.25
[3]; 1 µmol
  Serum TC (Fig. 4a), Mean Diff. ND vs. treatment (Tukey): 55.33
  Serum TC (Fig. 4a), Mean Diff. Vehicle vs. treatment (Tukey): 126
[3]; ND minus 0.1 µmol group
  Mean Diff., ND vs. treated (Fig. 4b): 62.42
[3]; ND minus 1 µmol group
  Mean Diff., ND vs. treated (Fig. 4b): 71.52
[3]; Vehicle minus 0.1 µmol group
  Mean Diff., Vehicle vs. treated (Fig. 4b): 31.43
[3]; Vehicle minus 1 µmol group
  Mean Diff., Vehicle vs. treated (Fig. 4b): 40.53
[3]; [6]
  serum triglyceride level vs vehicle: decreased
[4]; 1µmol, one value per animal
  Cyp7a1 expression in the liver, individual animal values: 0.6381 and 0.6001 and 0.9755 and 0.7051 and 0.7377 and 0.8699 and 1.225 and 1.875 and 1.688 and 1.407
  Dio1 expression in the liver, individual animal values: 2.348 and 0.8674 and 3.4594 and 3.712 and 3.243 and 4.342 and 3.767 and 2.33 and 3.714 and 5.338
  Ldlr expression in the liver, individual animal values: 0.4288 and 1.672 and 1.891 and 1.348 and 1.361 and 2.264 and 2.662 and 1.059 and 1.183 and 1.422
  Me1 expression in the liver, individual animal values: 2.009 and 0.7713 and 1.636 and 2.32 and 2.026 and 3.023 and 3.213 and 2.688 and 3.436 and 4.664
  Pnpla2 expression in the liver, individual animal values: 1.268 and 0.9327 and 2.591 and 7.772 and 2.012 and 5.634 and 5.017 and 1.649 and 3.705 and 2.077
  Srebp1c expression in the liver, individual animal values: 0.1054 and 0.05247 and 0.1951 and 0.3686 and 0.2695 and 0.5078 and 0.5858 and 0.293 and 0.5057 and 0.124
  Thrsp expression in the liver, individual animal values: 1.26 and 1.164 and 1.998 and 1.521 and 1.182 and 1.374 and 1.7691 and 1.941 and 1.759 and 2.356
[4]; [7]
  liver expression of Cyp7a1 vs vehicle: not significantly different
  liver expression of Dio1 vs vehicle: significantly upregulated
  liver expression of Ldlr vs vehicle: not significantly different
  liver expression of Me1 vs vehicle: significantly upregulated
  liver expression of Pnpla2 vs vehicle: significantly higher
  liver expression of Srebp1c vs vehicle: Although not statistically significant, the ZTA-261-treated group showed decreased Srebp1c expression
  liver expression of Thrsp vs vehicle: increased
[4]; [8]
  Pnpla2, Dunn's multiple comparisons test, Mean rank diff. (Vehicle vs. compound): -17.5
  Srebp1c, Dunn's multiple comparisons test, Mean rank diff. (Vehicle vs. compound): 13.17
[4]; liver gene expression, 1µmol dose group, Vehicle mean rank 8
  Pnpla2, Mean rank of treatment group (Mean rank 2): 25.5
[4]; liver gene expression, 1µmol dose group, Vehicle mean rank […]
  Srebp1c, Mean rank of treatment group (Mean rank 2): 20.5
[5]
  Papp at 30 min, 10 µM: 7.28 ± 2.55 ×10⁻⁶ cm/s
